According to US20050220888A1, “Controlled release compositions and methods for using same” (priority 2002, published 2005):
Counter-ions that a name gives are not always drawn.

Tests used:
[1] = test system: IL-6 production by HUVEC cells; assay: Inhibition of histamine-induced IL-6 mRNA production (RT-PCR against HPRT); assay type: cell-based, human; settings: 5 hours
From the text: Various assays also exist for identifying a highest pharmacological activity enantiomer of a given pharmacologically active agent. Where the pharmaceutical activity is as a histamine antagonist, IL-6 production by HUVEC cells is a cell biomarker of histamine activity and is used to assess the relative antagonistic activity of prospective H1 blockers. IL-6 production in human endothelial cells is known to be induced by histamine due to H1 and H2 receptor binding with H1 the dominant effect. Delneste, et al. As H1 antagonism is directly linked to reduced emesis during motion sickness treatment, this assay serves as an in vitro methodology for the selection of potential motion sickness and antihistamine candidates. Realtime RT-PCR analysis of IL-6 mRNA synthesis in HUVEC cells stimulated with histamine is employed as an in vitro assay for the analysis of the relative efficacy of potential antihistaminic agents.
A preferred assay for measuring activity of phenothiazine and other histamine antagonists comprises: providing at least a first viable culture and a second viable culture comprising Huvec cells; exposing the first viable culture to a first combination comprising histamine and the (+)-enantiomer of the phenothiazine under conditions effective to inhibit IL-6 mRNA expression; exposing the second viable culture to a combination comprising histamine and the (−)-enantiomer of the phenothiazine under conditions effective to inhibit IL-6 mRNA expression; measuring inhibition of IL-6 mRNA expression induced by the first combination and the second combination after at least four hours to identify a (+)-enantiomer inhibition value and a (−)-enantiomer inhibition value; and selecting as the highest pharmacological activity enantiomer the enantiomer having the greater inhibition value selected from the group consisting of the (+)-enantiomer inhibition value and the (−)-enantiomer inhibition value.
Huvec cells were plated and grown to confluence in 6-well plates. […] Total RNA was isolated using Tri-reagent and subjected to reverse transcription polymerase chain reaction (RT-PCR) analysis of IL-6 production using semiquantitative analysis against HPRT expression (control gene).
The procedures of Example 3 were repeated using the (+)-enantiomer (#2) and the (−)-enantiomer (#1) of EPZ at 10^−5 molar and 10^−6 molar, and TPZ at 10^−5 molar.

[2] = test system: L929 lung fibroblast; settings: shown by previous studies; cited from earlier work
[3] = encapsulated in a variety of shell materials, administered to beagles; cited from earlier work

CC(CN1c2ccccc2Sc2ccccc21)N(C)C.Cl (single isomer, unassigned; (-)) [(−) enantiomer, (−)-Promethazine hydrochloride]
reduction in IL-6 production ([1]; 10^−5 M with Histamine 10^−4 M): 50%

C=C(C)C(=O)OCC(O)COc1ccc(C(C)(C)c2ccc(OCC(O)COC(=O)C(=C)C)cc2)cc1 (stereo not drawn) [BisGMA]
cytotoxicity of control in this assay [2]: significantly cytotoxic

NCCc1c[nH]cn1 [Histamine]
increase in IL-6 mRNA production ([1]; Histamine alone 10^−4 M, versus endogenous production): 50%

CC(CN1c2ccccc2Sc2ccccc21)N(C)C.Cl (single isomer, unassigned; (+)) [(+) enantiomer, (+)-Promethazine hydrochloride]
IL-6 production reduced to % of the histamine stimulated cell ([1]; 10^−5 M with Histamine 10^−4 M): 90%

CC(CN1c2ccccc2Sc2ccccc21)N(C)C (racemic) [Promethazine, promethazine hydrochloride]
nasal irritation [3]: severe nasal irritation was observed
inhibition of histamine stimulation of IL-6 production ([1]; 10^−5 M with Histamine 10^−4 M, relative to cells stimulated only with histamine): 50%
